In ChEMBL document CHEMBL1201861, “Genomics of Drug Sensitity in Cancer screening data, Wellcome Trust Sanger Institute”:

Assays:
Assay in all cases: cells
[1] = tested on: NMC-G1; assay type: functional, cell-based, Homo sapiens; details: Homo sapiens, NMC-G1;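 note: growth inhibition of the NMC-G1 cell line, measured with a cell viability read-out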
Description: SANGER: Inhibition of human NMC-G1 cell growth in a cell viability assay.

[2] = tested on: DBTRG-05MG; assay type: functional, cell-based, Homo sapiens; details: Homo sapiens, DBTRG-05MG;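 note: cell viability assay measuring growth inhibition of human DBTRG-05MG cells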
Description: SANGER: Inhibition of human DBTRG-05MG cell growth in a cell viability assay.

[3] = tested on: K562; assay type: functional, cell-based; details: Homo sapiens
Description: SANGER: Inhibition of human K-562 cell growth in a cell viability assay.

[4] = tested on: 8305C; assay type: functional, cell-based, Homo sapiens; details: Homo sapiens, 8305C
Description: SANGER: Inhibition of human 8305C cell growth in a cell viability assay.

[5] = tested on: A2058; assay type: functional, cell-based; details: Homo sapiens;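 note: reduction of A2058 cell growth, read out with a viability assay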
Description: SANGER: Inhibition of human A2058 cell growth in a cell viability assay.

[6] = tested on: HCE-4; assay type: functional, cell-based, Homo sapiens; details: Homo sapiens, HCE-4;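 note: cell viability assay measuring inhibition of growth in the human HCE-4 cell line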
Description: SANGER: Inhibition of human HCE-4 cell growth in a cell viability assay.

[7] = tested on: HT-29; assay type: functional, cell-based, Homo sapiens; details: Homo sapiens, HT-29;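 note: growth inhibition of human HT-29 cells, read out by a cell viability assay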
Description: SANGER: Inhibition of human HT-29 cell growth in a cell viability assay.

[8] = tested on: LN-405; assay type: functional, cell-based, Homo sapiens; details: Homo sapiens, LN-405
Description: SANGER: Inhibition of human LN-405 cell growth in a cell viability assay.

[9] = tested on: CAL-39; assay type: functional, cell-based, Homo sapiens; details: Homo sapiens, CAL-39;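 note: cell viability assay measuring growth inhibition of CAL-39 cells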
Description: SANGER: Inhibition of human CAL-39 cell growth in a cell viability assay.

[10] = tested on: DoTc2-4510; assay type: functional, cell-based, Homo sapiens; details: Homo sapiens, DoTc2-4510
[11] = tested on: TCC-SUP; assay type: functional, cell-based, Homo sapiens; details: Homo sapiens, TCC-SUP;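 note: growth inhibition of TCC-SUP cells, read out with a cell viability assay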
Description: SANGER: Inhibition of human TCCSUP cell growth in a cell viability assay.

[12] = tested on: SK-LU-1; assay type: functional, cell-based, Homo sapiens; details: Homo sapiens, SK-LU-1;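 note: cell viability assay measuring growth inhibition of human SK-LU-1 cells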
Description: SANGER: Inhibition of human SK-LU-1 cell growth in a cell viability assay.

[13] = tested on: NCI-H2452; assay type: functional, cell-based, Homo sapiens; details: Homo sapiens, NCI-H2452;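 note: growth inhibition of NCI-H2452 cells, read out with a cell viability assay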
Description: SANGER: Inhibition of human NCI-H2452 cell growth in a cell viability assay.

[14] = tested on: HTC-C3; assay type: functional, cell-based, Homo sapiens; details: Homo sapiens, HTC-C3;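 note: inhibition of cell growth, read out with a cell viability assay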
Description: SANGER: Inhibition of human HTC-C3 cell growth in a cell viability assay.

[15] = tested on: Calu-3; assay type: functional, cell-based, Homo sapiens; details: Homo sapiens, Calu-3;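 note: growth inhibition of human Calu-3 cells, determined with a cell viability assay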
Description: SANGER: Inhibition of human Calu-3 cell growth in a cell viability assay.

[16] = tested on: SW684; assay type: functional, cell-based, Homo sapiens; details: Homo sapiens, SW684;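 note: growth inhibition of human SW684 cells, measured by a cell viability assay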
Description: SANGER: Inhibition of human SW684 cell growth in a cell viability assay.

[17] = tested on: MLMA; assay type: functional, cell-based, Homo sapiens; details: Homo sapiens, MLMA;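 note: growth inhibition of MLMA cells (human), determined through a cell viability readout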
Description: SANGER: Inhibition of human MLMA cell growth in a cell viability assay.

[18] = tested on: T98G; assay type: functional, cell-based, Homo sapiens; details: Homo sapiens, T98G;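 note: growth inhibition of T98G cells, read out by a cell viability assay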
Description: SANGER: Inhibition of human T98G cell growth in a cell viability assay.

[19] = tested on: LB2241-RCC; assay type: functional, cell-based, Homo sapiens; details: Homo sapiens, LB2241-RCC;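 note: cell viability assay measuring how strongly the cultured human renal carcinoma line is prevented from growing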
Description: SANGER: Inhibition of human LB2241-RCC cell growth in a cell viability assay.

[20] = tested on: MHH-NB-11; assay type: functional, cell-based, Homo sapiens; details: Homo sapiens, MHH-NB-11;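 note: growth inhibition of human MHH-NB-11 cells, read out by a cell viability assay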
Description: SANGER: Inhibition of human MHH-NB-11 cell growth in a cell viability assay.

[21] = tested on: SF-295; assay type: functional, cell-based, Homo sapiens; details: Homo sapiens, SF-295; read-out: IC50;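 note: growth inhibition of SF-295 cells, read out with a cell viability assay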
Description: SANGER: Inhibition of human SF295 cell growth in a cell viability assay.

[22] = tested on: SNU-C2B; assay type: functional, cell-based, Homo sapiens; details: Homo sapiens, SNU-C2B;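 note: cell viability readout used to measure compound-driven suppression of SNU-C2B cell proliferation, IC50 marking half-maximal growth inhibition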
Description: SANGER: Inhibition of human SNU-C2B cell growth in a cell viability assay.

[23] = tested on: CAL-54; assay type: functional, cell-based, Homo sapiens; details: Homo sapiens, CAL-54;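 note: growth inhibition of CAL-54 cells, read out by a viability measurement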
Description: SANGER: Inhibition of human CAL-54 cell growth in a cell viability assay.

[24] = tested on: NCI-H1792; assay type: functional, cell-based, Homo sapiens; details: Homo sapiens, NCI-H1792;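 note: growth inhibition of human NCI-H1792 cells, read out as cell viability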
Description: SANGER: Inhibition of human NCI-H1792 cell growth in a cell viability assay.

[25] = tested on: 647-V; assay type: functional, cell-based, Homo sapiens; details: Homo sapiens, 647-V;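 note: growth inhibition of 647-V cells, read out with a cell viability assay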
Description: SANGER: Inhibition of human 647-V cell growth in a cell viability assay.

[26] = tested on: SN12C; assay type: functional, cell-based, Homo sapiens; details: Homo sapiens, SN12C;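 note: growth inhibition of human SN12C cells, measured by a cell viability assay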
Description: SANGER: Inhibition of human SN12C cell growth in a cell viability assay.

[27] = tested on: M059J; assay type: functional, cell-based, Homo sapiens; details: Homo sapiens, M059J;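 note: growth inhibition of M059J cells, read out with a cell viability assay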
Description: SANGER: Inhibition of human M059J cell growth in a cell viability assay.

[28] = tested on: NCI-H650; assay type: functional, cell-based, Homo sapiens; details: Homo sapiens, NCI-H650;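 note: growth inhibition of NCI-H650 cells, read out by a viability assay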
Description: SANGER: Inhibition of human NCI-H650 cell growth in a cell viability assay.

[29] = tested on: OE33; assay type: functional, cell-based, Homo sapiens; details: Homo sapiens, OE33;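 note: growth inhibition of human OE33 cells, measured by a cell viability assay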
Description: SANGER: Inhibition of human OE33 cell growth in a cell viability assay.

[30] = tested on: MPP-89; assay type: functional, cell-based, Homo sapiens; details: Homo sapiens, MPP-89;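 note: growth inhibition of human MPP-89 cells, read out with a cell viability assay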
Description: SANGER: Inhibition of human MPP-89 cell growth in a cell viability assay.

[31] = tested on: PC-14; assay type: functional, cell-based, Homo sapiens; details: Homo sapiens, PC-14;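 note: cell viability assay measuring inhibition of PC-14 cell growth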
Description: SANGER: Inhibition of human PC-14 cell growth in a cell viability assay.

[32] = tested on: MZ1-PC; assay type: functional, cell-based, Homo sapiens; details: Homo sapiens, MZ1-PC;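 note: cell viability assay measuring growth inhibition of human MZ1-PC cells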
Description: SANGER: Inhibition of human MZ1-PC cell growth in a cell viability assay.

[33] = tested on: SW837; assay type: functional, cell-based, Homo sapiens; details: Homo sapiens, SW837;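 note: growth inhibition of SW837 cells, determined with a cell viability assay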
Description: SANGER: Inhibition of human SW837 cell growth in a cell viability assay.

[34] = tested on: TK-10; assay type: functional, cell-based, Homo sapiens; details: Homo sapiens, TK-10;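 note: growth inhibition of TK-10 cells, read out in a cell viability assay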
Description: SANGER: Inhibition of human TK10 cell growth in a cell viability assay.

[35] = tested on: BHT-101; assay type: functional, cell-based, Homo sapiens; details: Homo sapiens, BHT-101
Description: SANGER: Inhibition of human BHT-101 cell growth in a cell viability assay.

[36] = tested on: SK-PN-DW; assay type: functional, cell-based; details: Homo sapiens;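 note: growth inhibition measured with a viability assay on these cells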
Description: SANGER: Inhibition of human SK-PN-DW cell growth in a cell viability assay.

[37] = tested on: A 172; assay type: functional, cell-based, Homo sapiens; details: Homo sapiens, A 172;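 note: growth inhibition of A172 cells, measured with a cell viability readout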
Description: SANGER: Inhibition of human A172 cell growth in a cell viability assay.

[38] = tested on: NH-12; assay type: functional, cell-based, Homo sapiens; details: Homo sapiens, NH-12;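 note: growth inhibition of NH-12 cells, read out with a cell viability assay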
Description: SANGER: Inhibition of human NH-12 cell growth in a cell viability assay.

[39] = tested on: TGW; assay type: functional, cell-based; details: Homo sapiens;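 note: growth inhibition of human TGW cells, read out with a cell viability assay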
Description: SANGER: Inhibition of human TGW cell growth in a cell viability assay.

[40] = tested on: SW13; assay type: functional, cell-based, Homo sapiens; details: Homo sapiens, SW13;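 note: IC50 is inhibition of SW13 cell growth, read out with a cell viability assay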
Description: SANGER: Inhibition of human SW13 cell growth in a cell viability assay.

[41] = tested on: KE-37; assay type: functional, cell-based; details: Homo sapiens;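 note: growth inhibition of KE-37 cells, read out with a cell viability assay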
Description: SANGER: Inhibition of human KE-37 cell growth in a cell viability assay.

[42] = tested on: 8505C; assay type: functional, cell-based, Homo sapiens; details: Homo sapiens, 8505C
Description: SANGER: Inhibition of human 8505C cell growth in a cell viability assay.

[43] = tested on: GR-ST; assay type: functional, cell-based; details: Homo sapiens
Description: SANGER: Inhibition of human GR-ST cell growth in a cell viability assay.

[44] = tested on: TE-1; assay type: functional, cell-based, Homo sapiens; details: Homo sapiens, TE-1;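 note: growth inhibition of the human TE-1 cell line, read out with a cell viability assay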
Description: SANGER: Inhibition of human TE-1 cell growth in a cell viability assay.

[45] = tested on: Ca-Ski; assay type: functional, cell-based; details: Homo sapiens;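 note: cell viability assay measuring inhibition of Ca-Ski cell growth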
Description: SANGER: Inhibition of human Ca-Ski cell growth in a cell viability assay.

[46] = tested on: COLO-829; assay type: functional, cell-based, Homo sapiens; details: Homo sapiens, COLO-829
Description: SANGER: Inhibition of human COLO-829 cell growth in a cell viability assay.

[47] = tested on: NCI-H23; assay type: functional, cell-based, Homo sapiens; details: Homo sapiens, NCI-H23;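 note: cell viability assay measuring growth inhibition of NCI-H23 cells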
Description: SANGER: Inhibition of human NCI-H23 cell growth in a cell viability assay.

[48] = tested on: MC-IXC; assay type: functional, cell-based, Homo sapiens; details: Homo sapiens, MC-IXC;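 note: growth inhibition of MC-IXC cells, read out with a cell viability assay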
Description: SANGER: Inhibition of human MC-IXC cell growth in a cell viability assay.

[49] = tested on: CTV-1; assay type: functional, cell-based; details: Homo sapiens;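 note: growth inhibition of the cell line, read out with a cell viability assay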
Description: SANGER: Inhibition of human CTV-1 cell growth in a cell viability assay.

[50] = tested on: KARPAS-45; assay type: functional, cell-based; details: Homo sapiens;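 note: inhibition of cell line growth, read out through a viability assay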
Description: SANGER: Inhibition of human KARPAS-45 cell growth in a cell viability assay.

[51] = tested on: KU812 cell line; assay type: functional, cell-based; details: Homo sapiens;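 note: growth inhibition of KU812 cells, read out with a cell viability assay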
Description: SANGER: Inhibition of human KU812 cell growth in a cell viability assay.

O=c1cc(-c2cccc3c2Sc2ccccc2S3)oc(N2CCOCC2)c1 [KU-55933]
IC50 [1]: > 10 µM | IC50 [2]: > 10 µM | IC50 [3]: > 10 µM | IC50 [4]: > 10 µM | IC50 [5]: > 10 µM | IC50 [6]: > 10 µM | IC50 [7]: > 10 µM | IC50 [8]: > 10 µM | IC50 [9]: > 10 µM | IC50 [10]: > 10 µM | IC50 [11]: > 10 µM | IC50 [12]: > 10 µM | IC50 [13]: > 10 µM | IC50 [14]: > 10 µM | IC50 [15]: > 10 µM | IC50 [16]: > 10 µM | IC50 [17]: > 10 µM | IC50 [18]: > 10 µM | IC50 [19]: > 10 µM | IC50 [20]: > 10 µM | IC50 [21]: > 10 µM | IC50 [22]: > 10 µM | IC50 [23]: > 10 µM | IC50 [24]: > 10 µM | IC50 [25]: > 10 µM | IC50 [26]: > 10 µM | IC50 [27]: > 10 µM | IC50 [28]: > 10 µM | IC50 [29]: > 10 µM | IC50 [30]: > 10 µM | IC50 [31]: > 10 µM | IC50 [32]: > 10 µM | IC50 [33]: > 10 µM | IC50 [34]: > 10 µM | IC50 [35]: > 10 µM | IC50 [36]: > 10 µM | IC50 [37]: > 10 µM | IC50 [38]: > 10 µM | IC50 [39]: > 10 µM | IC50 [40]: > 10 µM | IC50 [41]: > 10 µM | IC50 [42]: > 10 µM | IC50 [43]: > 10 µM | IC50 [44]: > 10 µM | IC50 [45]: > 10 µM | IC50 [46]: > 10 µM | IC50 [47]: > 10 µM | IC50 [48]: > 10 µM

CCOc1nc(NC(=O)Cc2cc(OC)ccc2OC)cc(N)c1C#N
IC50 [1]: > 10 µM | IC50 [2]: > 10 µM | IC50 [49]: > 10 µM | IC50 [3]: > 10 µM | IC50 [4]: > 10 µM | IC50 [5]: > 10 µM | IC50 [6]: > 10 µM | IC50 [7]: > 10 µM | IC50 [8]: > 10 µM | IC50 [9]: > 10 µM | IC50 [50]: > 10 µM | IC50 [10]: > 10 µM | IC50 [11]: > 10 µM | IC50 [12]: > 10 µM | IC50 [13]: > 10 µM | IC50 [14]: > 10 µM | IC50 [15]: > 10 µM | IC50 [16]: > 10 µM | IC50 [17]: > 10 µM | IC50 [18]: > 10 µM | IC50 [19]: 6.58 µM | IC50 [51]: > 10 µM | IC50 [20]: > 10 µM | IC50 [21]: > 10 µM | IC50 [22]: > 10 µM | IC50 [23]: > 10 µM | IC50 [24]: > 10 µM | IC50 [25]: > 10 µM | IC50 [26]: > 10 µM | IC50 [27]: > 10 µM | IC50 [28]: > 10 µM | IC50 [29]: > 10 µM | IC50 [30]: > 10 µM | IC50 [31]: > 10 µM | IC50 [32]: > 10 µM | IC50 [33]: > 10 µM | IC50 [34]: > 10 µM | IC50 [35]: > 10 µM | IC50 [36]: > 10 µM | IC50 [37]: > 10 µM | IC50 [38]: > 10 µM | IC50 [39]: > 10 µM | IC50 [40]: > 10 µM | IC50 [41]: > 10 µM | IC50 [42]: > 10 µM | IC50 [43]: > 10 µM | IC50 [44]: > 10 µM | IC50 [45]: > 10 µM | IC50 [46]: > 10 µM | IC50 [47]: > 10 µM | IC50 [48]: > 10 µM

COc1ccc(C2=N[C@@H](c3ccc(Cl)cc3)[C@@H](c3ccc(Cl)cc3)N2C(=O)N2CCNC(=O)C2)c(OC(C)C)c1 [NUTLIN-3]
IC50 [1]: > 8 µM | IC50 [2]: > 8 µM | IC50 [49]: 4.08 µM | IC50 [3]: > 8 µM | IC50 [4]: > 8 µM | IC50 [5]: > 8 µM | IC50 [6]: > 8 µM | IC50 [7]: > 8 µM | IC50 [8]: > 8 µM | IC50 [9]: > 8 µM | IC50 [50]: > 8 µM | IC50 [10]: > 8 µM | IC50 [11]: > 8 µM | IC50 [12]: > 8 µM | IC50 [13]: > 8 µM | IC50 [14]: > 8 µM | IC50 [15]: > 8 µM | IC50 [16]: > 8 µM | IC50 [17]: > 8 µM | IC50 [18]: > 8 µM | IC50 [19]: 3.66 µM | IC50 [51]: > 8 µM | IC50 [20]: 3.27 µM | IC50 [21]: > 8 µM | IC50 [22]: > 8 µM | IC50 [23]: 4.53 µM | IC50 [24]: > 8 µM | IC50 [25]: > 8 µM | IC50 [26]: > 8 µM | IC50 [27]: > 8 µM | IC50 [28]: > 8 µM | IC50 [29]: > 8 µM | IC50 [30]: > 8 µM | IC50 [31]: > 8 µM | IC50 [32]: > 8 µM | IC50 [33]: > 8 µM | IC50 [34]: > 8 µM | IC50 [35]: > 8 µM | IC50 [36]: > 8 µM | IC50 [37]: 2.68 µM | IC50 [38]: 4.02 µM | IC50 [39]: > 8 µM | IC50 [40]: > 8 µM | IC50 [41]: > 8 µM | IC50 [42]: > 8 µM | IC50 [43]: > 8 µM | IC50 [44]: > 8 µM | IC50 [45]: > 8 µM | IC50 [46]: 7.24 µM | IC50 [47]: > 8 µM | IC50 [48]: > 8 µM
